Where two headings read alike, the source gives them in different places.
Legend:
Assay type in all cases: biochemical
DYRK3 = target: T1, DYRK3 (Homo sapiens, UniProt O43781); assay: Inhibition test on activity of DYRK family, mobility shift assay (MSA): DYRK3
T1 construct: purchased Carna Biosciences, Inc. 04-133
T1 sequence (O43781 1-568 isoform O43781-2): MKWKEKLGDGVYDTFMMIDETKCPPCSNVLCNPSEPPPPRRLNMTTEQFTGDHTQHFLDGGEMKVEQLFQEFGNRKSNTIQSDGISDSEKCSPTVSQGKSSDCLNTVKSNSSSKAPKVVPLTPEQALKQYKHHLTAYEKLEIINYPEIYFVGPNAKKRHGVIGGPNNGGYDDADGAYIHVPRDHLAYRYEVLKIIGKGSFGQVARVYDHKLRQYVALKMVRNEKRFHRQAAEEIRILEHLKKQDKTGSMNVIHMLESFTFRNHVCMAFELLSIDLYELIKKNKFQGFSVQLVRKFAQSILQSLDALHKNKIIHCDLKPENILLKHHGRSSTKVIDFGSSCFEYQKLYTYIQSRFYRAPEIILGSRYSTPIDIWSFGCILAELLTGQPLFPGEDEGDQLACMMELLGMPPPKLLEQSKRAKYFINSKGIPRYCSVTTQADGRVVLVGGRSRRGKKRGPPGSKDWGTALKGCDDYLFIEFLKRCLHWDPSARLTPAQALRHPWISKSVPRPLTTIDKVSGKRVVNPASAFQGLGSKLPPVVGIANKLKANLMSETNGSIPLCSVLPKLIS
Method: (§1) [Inhibition Test on Activity of DYRK Family (DYRK1A, DYRK1B, DYRK2, and DYRK3)]
(§2) The kinase activity was measured by mobility shift assay (MSA) method using QuickScout Screening Assist™ MSA (commercially available kit manufactured by Carna Biosciences, Inc.). The substrate of the kinase reaction used was an FITC-labeled DYRKtide peptide included in the kit. An assay buffer [20 mM HEPES, 0.01% Triton X-100™, 2 mM dithiothreitol, pH 7.5]was used to create a substrate mixture solution with a substrate (4 μM), MgCl2(20 mM), and ATP (DYRK1A: 100 μM; DYRK1B: 200 μM; DYRK2: 40 μM; and DYRK3: 20 μM). In addition, kinases (DYRK1A: manufactured by Carna Biosciences, Inc., Cat. No. 04-130; DYRK1B: manufactured by Carna Biosciences, Inc., Cat. No. 04-131; DYRK2; manufactured by Carna Biosciences, Inc., Cat. No. 04-132; and DYRK3; manufactured by Carna Biosciences, Inc., Cat. No. 04-133) were diluted with the assay buffer to prepare enzyme solutions (DYRK1A: 0.2 ng/μL; DYRK1B: 0.08 ng/μL; DYRK2: 0.04 ng/μL; and DYRK3: 0.25 ng/μL). The 10 mM solution of the test compound in DMSO was further diluted with DMSO to 10 levels of the concentration (0.00003 mM, 0.0001 mM, 0.0003 mM, 0.001 mM, 0.003 mM, 0.01 mM, 0.03 mM, 0.1 mM, 0.3 mM, and 1 mM), each of which was subjected to 25-fold dilution with the assay buffer to obtain a drug solution (4% DMSO solution). 5 μL of the drug solution or a control solution (4% DMSO-assay buffer), 5 μL of the substrate mixture solution, and 10 μL of the enzyme solution were mixed in the wells of a polypropylene 384-well plate and allowed to react at room temperature for 1 hour, and then the reaction was quenched by adding 60 μL of the termination buffer included in the kit. Subsequently, the quantities of the substrates (S) and the phosphorylated substrate (P) in the reaction solution were measured using LabChip EZ Reader II system (manufactured by Caliper Life Sciences) according to the protocol of the assay kit.
(§3) The heights of the peaks of the “substrate” and the “phosphorylated substrate” were expressed as S and P, respectively, and a blank containing the assay buffer instead of the enzyme solution was also measured.
(§4) The inhibition rate (%) of the test compound was calculated according to the following equation:
(§5) Inhibition rate (%)=(1−(C−A)/(B−A))×100 • wherein, A, B, and C represent P/(P+S) of the blank well, P/(P+S) of the control solution well, and P/(P+S) of the compound-containing well, respectively.
(§6) The IC50 value was calculated via a regression analysis of the inhibition rate and the test compound concentration (logarithmic value).
(§7) The inhibiting activities of representative compounds of the present invention are shown against DYRK1A, DYRK1B, DYRK2, and DYRK3 in Tables.

DYRK2 = target: T2, DYRK2 (Homo sapiens, UniProt Q92630); assay: Inhibition test on activity of DYRK family, mobility shift assay (MSA): DYRK2
T2 construct: purchased Carna Biosciences, Inc. 04-132
T2 sequence (Q92630 74-601 limits assumed): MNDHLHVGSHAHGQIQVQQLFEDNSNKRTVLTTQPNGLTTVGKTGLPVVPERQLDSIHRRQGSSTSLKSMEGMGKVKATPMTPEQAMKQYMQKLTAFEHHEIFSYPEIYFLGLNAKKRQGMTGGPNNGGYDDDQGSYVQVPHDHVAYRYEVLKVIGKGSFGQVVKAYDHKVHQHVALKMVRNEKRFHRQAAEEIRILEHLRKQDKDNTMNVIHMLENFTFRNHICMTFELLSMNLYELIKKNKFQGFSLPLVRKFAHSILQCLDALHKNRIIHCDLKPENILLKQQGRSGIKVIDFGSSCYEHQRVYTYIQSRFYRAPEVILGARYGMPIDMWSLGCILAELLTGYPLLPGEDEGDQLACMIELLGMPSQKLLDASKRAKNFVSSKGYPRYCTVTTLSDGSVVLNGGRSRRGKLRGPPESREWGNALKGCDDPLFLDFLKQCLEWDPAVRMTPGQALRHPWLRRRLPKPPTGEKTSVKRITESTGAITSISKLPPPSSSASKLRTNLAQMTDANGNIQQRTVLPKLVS
Method: as §1, §2, §3, §4, §5, §6, §7

DYRK1A = target: T3, DYRK1A (Homo sapiens, UniProt Q13627); assay: Inhibition test on activity of DYRK family, mobility shift assay (MSA): DYRK1A
T3 construct: purchased Carna Biosciences, Inc. 04-130
Method: as §1, §2, §3, §4, §5, §6

[1] = MSA, FITC-labeled DYRKtide peptide, ATP 20 μM, read-out: Inhibitory activity DYRK 3 (IC50 class)
[2] = MSA, FITC-labeled DYRKtide peptide, ATP 40 μM, read-out: Inhibitory activity DYRK 2 (IC50 class)
[3] = MSA, FITC-labeled DYRKtide peptide, ATP 100 μM, read-out: Inhibitory activity DYRK 1A (IC50 class)
[4] = read-out: Inhibitory activity DYRK 3
[5] = read-out: Inhibitory activity DYRK 1A
[6] = read-out: Inhibitory activity DYRK 2

SMILES: O=C1N[C@H]2CCN(C3COC3)C[C@H]2N1c1nc2c3c(ccc2s1)OCC3 (racemic) [Example 71, rac-(3aR,7aS)-3-(7,8-dihydrofuro[3,2-e][1,3]benzothiazol-2-yl)-5-(oxetan-3-yl)octahydro-2H-imidazo[4,5-c]pyridin-2-one]
- IC50 (DYRK3; [1]): ≥ 1 µM
- IC50 (DYRK2; [2]): ≥ 1 µM

SMILES: O=C1N[C@H]2CCN(C3CCC3)C[C@H]2N1c1nc2c3c(ccc2s1)OCC3 (racemic) [Example 72, rac-(3aR,7aS)-5-cyclobutyl-3-(7,8-dihydrofuro[3,2-e][1,3]benzothiazol-2-yl)octahydro-2H-imidazo[4,5-c]pyridin-2-one]
- IC50 (DYRK3; [1]): ≥ 1 µM
- IC50 (DYRK1A; [3]): 0.01 to 0.1 µM
- IC50 (DYRK2; [2]): ≥ 1 µM

SMILES: O=C1N[C@H]2CCCN(C3COC3)C[C@H]2N1c1nc2c3c(ccc2s1)OCC3 (racemic) [Example 73, rac-(3aR,8aS)-3-(7,8-dihydrofuro[3,2-e][1,3]benzothiazol-2-yl)-5-(oxetan-3-yl)octahydroimidazo[4,5-c]azepin-2(1H)-one]
- IC50 (DYRK3; [1]): ≥ 1 µM
- IC50 (DYRK1A; [3]): < 0.01 µM
- IC50 (DYRK2; [2]): 0.1 to 1 µM

SMILES: CN1CC[C@@H]2NC(=O)N(c3nc4c5c(ccc4s3)OCCO5)[C@@H]2C1 (racemic) [Example 76, rac-(3aR,7aS)-3-(7,8-dihydro[1,4]dioxino[2,3-e][1,3]benzothiazol-2-yl)-5-methyloctahydro-2H-imidazo[4,5-c]pyridin-2-one]
- IC50 (DYRK3; [1]): ≥ 1 µM
- IC50 (DYRK1A; [3]): 0.01 to 0.1 µM
- IC50 (DYRK2; [2]): ≥ 1 µM

SMILES: CN1CC[C@@H]2[C@H](C1)NC(=O)N2c1nc2c3c(ccc2s1)OCCO3 (racemic) [Example 77, rac-(3aR,7aS)-1-(7,8-dihydro[1,4]dioxino[2,3-e][1,3]benzothiazol-2-yl)-5-methyloctahydro-2H-imidazo[4,5-c]pyridin-2-one]
- IC50 (DYRK3; [1]): 0.1 to 1 µM
- IC50 (DYRK1A; [3]): 0.01 to 0.1 µM
- IC50 (DYRK2; [2]): ≥ 1 µM

SMILES: CN1CC[C@@H]2[C@H](C1)NC(=O)N2c1nc2c3c(ccc2s1)OCO3 (racemic) [Example 78, rac-(3aR,7aS)-1-(2H-[1,3]dioxolo[4,5-e][1,3]benzothiazol-7-yl)-5-methyloctahydro-2H-imidazo[4,5-c]pyridin-2-one]
- IC50 (DYRK3; [1]): 0.1 to 1 µM
- IC50 (DYRK1A; [3]): 0.01 to 0.1 µM
- IC50 (DYRK2; [2]): ≥ 1 µM

SMILES: CN1CC[C@@H]2NC(=O)N(c3nc4c5c(ccc4s3)OCO5)[C@@H]2C1 (racemic) [Example 79, rac-(3aR,7aS)-3-(2H-[1,3]dioxolo[4,5-e][1,3]benzothiazol-7-yl)-5-methyloctahydro-2H-imidazo[4,5-c]pyridin-2-one]
- IC50 (DYRK3; [1]): ≥ 1 µM
- IC50 (DYRK1A; [3]): 0.01 to 0.1 µM
- IC50 (DYRK2; [2]): ≥ 1 µM

SMILES: O=C1N[C@H]2CCN(C3COC3)C[C@H]2N1c1nc2c3c(ccc2s1)OCCO3 (racemic) [Example 80, rac-(3aR,7aS)-3-(7,8-dihydro[1,4]dioxino[2,3-e][1,3]benzothiazol-2-yl)-5-(oxetan-3-yl)octahydro-2H-imidazo[4,5-c]pyridin-2-one]
- IC50 (DYRK3; [1]): ≥ 1 µM
- IC50 (DYRK1A; [3]): 0.01 to 0.1 µM
- IC50 (DYRK2; [2]): ≥ 1 µM

SMILES: O=C1N[C@H]2CCN(C3COC3)C[C@H]2N1c1nc2c3c(ccc2s1)OCO3 (racemic) [Example 81, rac-(3aR,7aS)-3-(2H-[1,3]dioxolo[4,5-e][1,3]benzothiazol-7-yl)-5-(oxetan-3-yl)octahydro-2H-imidazo[4,5-c]pyridin-2-one]
- IC50 (DYRK3; [1]): ≥ 1 µM
- IC50 (DYRK1A; [3]): 0.01 to 0.1 µM
- IC50 (DYRK2; [2]): ≥ 1 µM

SMILES: CN1CCC[C@@H]2NC(=O)N(c3nc4c5c(ccc4s3)OCO5)[C@@H]2C1 (racemic) [Example 85, rac-(3aR,8aS)-3-(2H-[1,3]dioxolo[4,5-e][1,3]benzothiazol-7-yl)-5-methyloctahydroimidazo[4,5-c]azepin-2(1H)-one]
- IC50 (DYRK3; [1]): ≥ 1 µM
- IC50 (DYRK1A; [3]): 0.01 to 0.1 µM
- IC50 (DYRK2; [2]): ≥ 1 µM

SMILES: O=C1N[C@H]2CCCN(C3COC3)C[C@H]2N1c1nc2c3c(ccc2s1)OCO3 (racemic) [Example 86, rac-(3aR,8aS)-3-(2H-[1,3]dioxolo[4,5-e][1,3]benzothiazol-7-yl)-5-(oxetan-3-yl)octahydroimidazo[4,5-c]azepin-2(1H)-one]
- IC50 (DYRK3; [1]): ≥ 1 µM
- IC50 (DYRK1A; [3]): 0.01 to 0.1 µM
- IC50 (DYRK2; [2]): ≥ 1 µM

SMILES: O=C1N[C@H]2CCN(C3CC3)C[C@H]2N1c1nc2c3c(ccc2s1)OCC3 (racemic) [Example 98, rac-(3aR,7aS)-5-cyclopropyl-3-(7,8-dihydrofuro[3,2-e][1,3]benzothiazol-2-yl)octahydro-2H-imidazo[4,5-c]pyridin-2-one]
- IC50 (DYRK3; [4]): ≥ 1 µM
- IC50 (DYRK1A; [5]): < 0.01 µM
- IC50 (DYRK2; [6]): ≥ 1 µM

SMILES: C#CCN1CC[C@@H]2NC(=O)N(c3nc4c5c(ccc4s3)OCC5)[C@@H]2C1 (racemic) [Example 99, rac-(3aR,7aS)-3-(7,8-dihydrofuro[3,2-e][1,3]benzothiazol-2-yl)-5-(2-propyn-1-yl)octahydro-2H-imidazo[4,5-c]pyridin-2-one]
- IC50 (DYRK3; [4]): 0.1 to 1 µM
- IC50 (DYRK1A; [5]): < 0.01 µM
- IC50 (DYRK2; [6]): 0.1 to 1 µM

SMILES: C#CCN1CC[C@H]2NC(=O)N(c3nc4c5c(ccc4s3)OCC5)[C@H]2C1 (single isomer, unassigned) [Example 113]
- IC50 (DYRK1A; [5]): 0.1 to 1 µM
- IC50 (DYRK2; [6]): ≥ 1 µM

SMILES: O=C1N[C@H]2CCN(C3COC3)C[C@@H]2N1c1nc2c3c(ccc2s1)OCC3 [Example 19, (3aS,7aS)-3-(7,8-dihydrofuro[3,2-e][1,3]benzothiazol-2-yl)-5-(oxetan-3-yl)octahydro-2H-imidazo[4,5-c]pyridin-2-one]
- IC50 (DYRK3; [1]): 0.1 to 1 µM
- IC50 (DYRK2; [2]): 0.1 to 1 µM

SMILES: O=C1N[C@H]2COCC[C@H]2N1c1nc2c3c(ccc2s1)OCCO3 [Example 37, (3aR,7aR)-1-(7,8-dihydro[1,4]dioxino[2,3-e][1,3]benzothiazol-2-yl)hexahydropyrano[3,4-d]imidazol-2(3H)-one]
- IC50 (DYRK3; [1]): 0.1 to 1 µM
- IC50 (DYRK2; [2]): 0.1 to 1 µM

SMILES: O=C1N[C@H]2CNCC[C@H]2N1c1nc2c3c(ccc2s1)OCO3 [Example 52]
- IC50 (DYRK3; [1]): 0.1 to 1 µM
- IC50 (DYRK2; [2]): 0.1 to 1 µM

SMILES: CN1CC[C@@H]2NC(=O)N(c3nc4c5c(ccc4s3)OCC5)[C@@H]2C12CC2 [Example 69]
- IC50 (DYRK3; [1]): ≥ 1 µM
- IC50 (DYRK2; [2]): ≥ 1 µM

SMILES: CN1CC[C@H]2NC(=O)N(c3nc4c5c(ccc4s3)OCC5)[C@@H]2C12CC2 [Example 70]
- IC50 (DYRK3; [1]): 0.1 to 1 µM
- IC50 (DYRK2; [2]): ≥ 1 µM

Source: patent US20230365589A1, “NOVEL AMINE DERIVATIVES” (Sumitomo Pharma Co., Ltd., priority 2020, published 2023)
